This assay has as its target human APJ receptor (Homo sapiens (Human), UniProt P35414). As to the kind of experiment: Intracellular cAMP accumulation assay (APJ hcAMP, HTRF). It counts as cell-based. The following applies: human APJ, cAMP accumulation; read-out: Human APJ cAMP EC50 Potency range. In short, it runs like this:
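HEK293 cells stably expressing human APJ, 5,000 per well, incubated 30 min at rt with compound, […] and 2 μM forskolin. cAMP measured by HTRF against a cAMP standard curve as inhibition of forskolin-driven production. EC50 from variable-slope sigmoidal fit.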
For orientation: cAMP levels reflect the balance of adenylyl cyclase and phosphodiesterase activity.
Sequence of human APJ receptor (P35414 whole entry): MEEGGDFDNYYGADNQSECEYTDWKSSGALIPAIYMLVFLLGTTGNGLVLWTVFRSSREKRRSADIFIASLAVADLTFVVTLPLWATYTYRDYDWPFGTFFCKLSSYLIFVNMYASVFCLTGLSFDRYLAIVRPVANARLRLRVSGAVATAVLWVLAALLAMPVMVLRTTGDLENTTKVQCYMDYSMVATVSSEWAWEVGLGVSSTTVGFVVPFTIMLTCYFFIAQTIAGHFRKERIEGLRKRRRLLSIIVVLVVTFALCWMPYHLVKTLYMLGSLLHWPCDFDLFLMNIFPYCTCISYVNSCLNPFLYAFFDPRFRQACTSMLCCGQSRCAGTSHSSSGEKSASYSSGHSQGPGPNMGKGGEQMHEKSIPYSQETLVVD
Take `CCCCc1nc(=O)c(S(=O)(=O)c2ccc(-c3ccc(F)nc3C)cc2)c(O)n1[C@H]1CCCc2ccccc21` [Example 237, 2-butyl-5-[4-(6-fluoro-2-methylpyridin-3-yl)benzenesulfonyl]-6-hydroxy-1-[(1S)-1,2,3,4-tetrahydronaphthalen-1-yl]-1,4-dihydropyrimidin-4-one]: the concentration for a half-maximal effect (EC50) is 0.01 to 10 nM.
Then `CCCCc1nc(O)c(S(=O)(=O)c2ccc(Br)cc2)c(=O)n1[C@@H](C)c1ccccc1OC` [Example 238, 5-(4-bromobenzenesulfonyl)-2-butyl-6-hydroxy-3-[(1S)-1-(2-methoxyphenyl)ethyl]-3,4-dihydropyrimidin-4-one], with 100 to 300 nM; and `CCCCc1nc(=O)c(S(=O)(=O)c2ccc(-c3ccnc(F)c3C)cc2)c(O)n1[C@@H](C)c1ccccc1OC` [Example 239, 2-butyl-5-[4-(2-fluoro-3-methylpyridin-4-yl)benzenesulfonyl]-6-hydroxy-1-[(1S)-1-(2-methoxyphenyl)ethyl]-1,4-dihydropyrimidin-4-one], with 0.01 to 10 nM.
In the case of `CCCCc1nc(=O)c(S(=O)(=O)c2ccc(-c3ccc(F)nc3C)cc2)c(O)n1[C@@H](C)c1ccccc1OC` [Example 240, 2-butyl-5-[4-(6-fluoro-2-methylpyridin-3-yl)benzenesulfonyl]-6-hydroxy-1-[(1S)-1-(2-methoxyphenyl)ethyl]-1,4-dihydropyrimidin-4-one] it was 0.01 to 10 nM.
In the case of `CCCCc1nc(=O)c(S(=O)(=O)c2ccc(-c3cncc(F)c3)cc2)c(O)n1[C@@H](C)c1ccc(OC)cc1` [Example 241, 2-butyl-5-[4-(5-fluoropyridin-3-yl)benzenesulfonyl]-6-hydroxy-1-[(1S)-1-(4-methoxyphenyl)ethyl]-1,4-dihydropyrimidin-4-one] it was 0.01 to 10 nM; in that of `CCCCCc1nc(=O)c(S(=O)(=O)c2ccc(-c3ccnc(F)c3C)cc2)c(O)n1[C@@H](COC)c1ccccc1` [Example 242, 5-[4-(2-fluoro-3-methylpyridin-4-yl)benzenesulfonyl]-6-hydroxy-1-[(1R)-2-methoxy-1-phenylethyl]-2-pentyl-1,4-dihydropyrimidin-4-one], 0.01 to 10 nM.
On to `CCCCc1nc(=O)c(S(=O)(=O)c2ccc(-c3ccnc(F)c3C)cc2)c(O)n1[C@H]1CCCc2ccccc21` [Example 243, 2-butyl-5-[4-(2-fluoro-3-methylpyridin-4-yl)benzenesulfonyl]-6-hydroxy-1-[(1S)-1,2,3,4-tetrahydronaphthalen-1-yl]-1,4-dihydropyrimidin-4-one], for which the 50% effective concentration (EC50) is 0.01 to 10 nM.
As for `CCCCc1nc(=O)c(S(=O)(=O)c2ccc(-c3ccnc(F)c3C)cc2)c(O)n1[C@@H](C)c1ccc(OC)cc1` [Example 244, 2-butyl-5-[4-(2-fluoro-3-methylpyridin-4-yl)benzenesulfonyl]-6-hydroxy-1-[(1S)-1-(4-methoxyphenyl)ethyl]-1,4-dihydropyrimidin-4-one], the half-maximal effective concentration (EC50) fell in the range of 0.01 to 10 nM.
In the case of `CCCCCc1nc(=O)c(S(=O)(=O)c2ccc(-c3ccncc3C)cc2)c(O)n1[C@@H](COC)c1ccccc1` [Example 245, 6-hydroxy-1-[(1R)-2-methoxy-1-phenylethyl]-5-[4-(3-methylpyridin-4-yl)benzenesulfonyl]-2-pentyl-1,4-dihydropyrimidin-4-one] it was 0.01 to 10 nM.
In the case of `CCCCc1nc(O)c(S(=O)(=O)c2ccc(Br)cc2)c(=O)n1[C@@H](C)c1ccc(OC)cc1` [Example 246, 5-(4-bromobenzenesulfonyl)-2-butyl-6-hydroxy-3-[(1S)-1-(4-methoxyphenyl)ethyl]-3,4-dihydropyrimidin-4-one] it was 0.01 to 10 nM.
For `CCCCCc1nc(=O)c(S(=O)(=O)c2ccc(Br)cc2)c(O)n1[C@@H](COC)c1ccccc1` [Example 247, 5-(4-bromobenzenesulfonyl)-6-hydroxy-3-[(1R)-2-methoxy-1-phenylethyl]-2-pentyl-3,4-dihydropyrimidin-4-one], the 50% effective concentration (EC50) is 10 to 100 nM.
On to `CCCCCc1nc(=O)c(S(=O)(=O)c2ccc(-c3cncc(F)c3)cc2)c(O)n1[C@@H](COC)c1ccccc1` [Example 248, 5-[4-(5-fluoropyridin-3-yl)benzenesulfonyl]-6-hydroxy-1-[(1R)-2-methoxy-1-phenylethyl]-2-pentyl-1,4-dihydropyrimidin-4-one], for which the EC50 fell in the range of 0.01 to 10 nM.
Then `CCCCCc1nc(=O)c(S(=O)(=O)c2ccc(-c3cccnc3C)cc2)c(O)n1[C@@H](COC)c1ccccc1` [Example 249, 6-hydroxy-1-[(1R)-2-methoxy-1-phenylethyl]-5-[4-(2-methylpyridin-3-yl)benzenesulfonyl]-2-pentyl-1,4-dihydropyrimidin-4-one], with 0.01 to 10 nM; and `CCCCCc1nc(=O)c(S(=O)(=O)c2ccc(-c3ccc(F)nc3C)cc2)c(O)n1[C@@H](COC)c1ccccc1` [Example 250, 5-[4-(6-fluoro-2-methylpyridin-3-yl)benzenesulfonyl]-6-hydroxy-1-[(1R)-2-methoxy-1-phenylethyl]-2-pentyl-1,4-dihydropyrimidin-4-one], with 0.01 to 10 nM; and `CCCCc1nc(=O)c(S(=O)(=O)c2ccc(-c3ccncc3C)cc2)c(O)n1[C@@H](COC)c1cccc(C#N)c1` [Example 251, 3-[(1R)-1-{2-butyl-6-hydroxy-5-[4-[3-methylpyridin-4-yl)benzenesulfonyl]-4-oxo-1,4-dihydropyrimidin-1-yl}-2-methoxyethyl] benzonitrile], with 0.01 to 10 nM.
In the case of `CCCCc1nc(=O)c(S(=O)(=O)c2ccc(-c3ccncc3C)cc2)c(O)n1[C@@H](CC)c1ccc2c(c1)OCO2` [Example 252, 1-[(1S)-1-(2H-1,3-benzodioxol-5-yl)propyl]-2-butyl-6-hydroxy-5-[4-(3-methylpyridin-4-yl)benzenesulfonyl]-1,4-dihydropyrimidin-4-one] it was 0.01 to 10 nM; in that of `CCCCc1nc(=O)c(S(=O)(=O)c2ccc(-c3ccnc(F)c3C)cc2)c(O)n1[C@@H](COC)c1cccc(C#N)c1` [Example 253, 3-[(1R)-1-{2-butyl-5-[4-(2-fluoro-3-methylpyridin-4-yl)benzenesulfonyl]-6-hydroxy-4-oxo-1,4-dihydropyrimidin-1-yl}-2-methoxyethyl] benzonitrile], 0.01 to 10 nM.
In the case of `CCCCc1nc(O)c(S(=O)(=O)c2ccc(Br)cc2)c(=O)n1[C@H](CC)c1cccc2c1OCO2` [Example 254, 3-[(1R)-1-(2H-1,3-benzodioxol-4-yl)propyl]-5-(4-bromobenzenesulfonyl)-2-butyl-6-hydroxy-3,4-dihydropyrimidin-4-one] it was 10 to 100 nM; in that of `CCCCc1nc(=O)c(S(=O)(=O)c2ccc(-c3cncc(F)c3)cc2)c(O)n1[C@H](CC)c1cccc2c1OCO2` [Example 255, 1-[(1R)-1-(2H-1,3-benzodioxol-4-yl)propyl]-2-butyl-5-[4-(5-fluoropyridin-3-yl)benzenesulfonyl]-6-hydroxy-1,4-dihydropyrimidin-4-one], 0.01 to 10 nM; in that of `CCCCc1nc(=O)c(S(=O)(=O)c2ccc(-c3ccncc3C)cc2)c(O)n1[C@@H](CC)c1cccc2c1OCO2` [Example 256, 1-[(1S)-1-(2H-1,3-benzodioxol-4-yl)propyl]-2-butyl-6-hydroxy-5-[4-(3-methylpyridin-4-yl)benzenesulfonyl]-1,4-dihydropyrimidin-4-one], 0.01 to 10 nM.
Take `CCCCc1nc(=O)c(S(=O)(=O)c2ccc(-c3ccnc(F)c3C)cc2)c(O)n1[C@@H](CC)c1cccc2c1OCO2` [Example 257, 1-[(1S)-1-(2H-1,3-benzodioxol-4-yl)propyl]-2-butyl-5-[4-(2-fluoro-3-methylpyridin-4-yl)benzenesulfonyl]-6-hydroxy-1,4-dihydropyrimidin-4-one]: the EC50 was in the range of 0.01 to 10 nM.
In the case of `CCCCc1nc(=O)c(S(=O)(=O)c2ccc(-c3cncc(F)c3)cc2)c(O)n1[C@@H](CC)c1cccc2c1OCO2` [Example 258, 1-[(1S)-1-(2H-1,3-benzodioxol-4-yl)propyl]-2-butyl-5-[4-(5-fluoropyridin-3-yl)benzenesulfonyl]-6-hydroxy-1,4-dihydropyrimidin-4-one], the EC50 is 0.01 to 10 nM.
In the case of `CCCCc1nc(=O)c(S(=O)(=O)c2ccc(-c3ccncc3C)cc2)c(O)n1[C@H](CC)c1cccc2c1OCO2` [Example 259, 1-[(1R)-1-(2H-1,3-benzodioxol-4-yl)propyl]-2-butyl-6-hydroxy-5-[4-(3-methylpyridin-4-yl)benzenesulfonyl]-1,4-dihydropyrimidin-4-one] it was 0.01 to 10 nM.
In the case of `CCCCc1nc(=O)c(S(=O)(=O)c2ccc(-c3cccnc3C)cc2)c(O)n1[C@H](CC)c1cccc2c1OCO2` [Example 260, 1-[(1R)-1-(2H-1,3-benzodioxol-4-yl)propyl]-2-butyl-6-hydroxy-5-[4-(2-methylpyridin-3-yl)benzenesulfonyl]-1,4-dihydropyrimidin-4-one] it was 0.01 to 10 nM; in that of `CCCCc1nc(O)c(S(=O)(=O)c2ccc(Br)cc2)c(=O)n1[C@@H](CC)c1cccc2c1OCO2` [Example 261, 3-[(1S)-1-(2H-1,3-benzodioxol-4-yl)propyl]-5-(4-bromobenzenesulfonyl)-2-butyl-6-hydroxy-3,4-dihydropyrimidin-4-one], 0.01 to 10 nM.
In the case of `CCCCc1nc(=O)c(S(=O)(=O)c2ccc(-c3ccc(F)nc3C)cc2)c(O)n1[C@H](CC)c1cccc2c1OCO2` [Example 262, 1-[(1R)-1-(2H-1,3-benzodioxol-4-yl)propyl]-2-butyl-5-[4-(6-fluoro-2-methylpyridin-3-yl)benzenesulfonyl]-6-hydroxy-1,4-dihydropyrimidin-4-one] it was 0.01 to 10 nM.
With `CCCCc1nc(=O)c(S(=O)(=O)c2ccc(-c3cccnc3C)cc2)c(O)n1[C@@H](CC)c1cccc2c1OCO2` [Example 263, 1-[(1S)-1-(2H-1,3-benzodioxol-4-yl)propyl]-2-butyl-6-hydroxy-5-[4-(2-methylpyridin-3-yl)benzenesulfonyl]-1,4-dihydropyrimidin-4-one], the EC50 lay in the range of 0.01 to 10 nM.

In general, EC50 refers to the concentration that produces a half-maximal response.
